Reference: patent publication US9458161B1, “TSPO ligands for cancer imaging and treatment” (Vanderbilt University, priority 2011, dated 2016)
Like-named read-outs stand apart in the source and are kept apart here.

Experiments:
TSPO [1] = target: T1, TSPO (Homo sapiens, UniProt P30536); details: cited from earlier work
TSPO [2] = target: T1, TSPO; design: host or cells: glioma patients (Junck et al; Pappata et al.); details: cited from earlier work
[3] = HPLC radiometabolite analysis of plasma after [18F]DPA-714; format: in vivo, rat; details: mean ± SD
Protocol: Briefly, arterial blood (200 μL) was collected at 2, 12, 30, 60, and 90 min. Following centrifugation, plasma was extracted with acetonitrile:water (340 μL, 7:1, v/v). The mixture was centrifuged and the supernatant used for reversed phase HPLC analysis using 0.1 M aqueous ammonium acetate (NH4)OAc (pH 10) and acetonitrile (30:70; v/v) at 1 mL/min on a C18 Dynamax 250×4.6 mm (Varian) column. Radiochromatographic data were recorded and collected using a radioisotope detector (Bioscan), decay-corrected to time zero of each radiochromatogram, and smoothed using a locally weighted scatter plot smoothing method. The plasma time-activity curve was corrected according to the fraction of unchanged radioligand.

[4] = HPLC radiometabolite analysis of plasma after [18F]PBR06; format: in vivo, rat
Protocol: Blood samples (200 μL) were collected (2, 25, 45 min) for radiometabolite analysis. Following centrifugation, plasma was extracted with acetonitrile:water (340 μL, 7.5:1, v/v). The mixture was centrifuged and the supernatant used for HPLC analysis. Radioanalysis was conducted as is known in the art. Radiochromatographic data were recorded and collected using a radioisotope detector (Bioscan, Washington, D.C., USA), decay-corrected to time zero of each radiochromatogram, and smoothed using a locally weighted scatter plot smoothing (LOWESS) method. The plasma time-activity curve (TAC) was corrected with the fraction of unchanged radioligand.
Arterial blood samples were collected to assay [^18F]PBR06 radiometabolites for correction of the AIF. FIG. 12 illustrates a typical activity corrected reversed-phase HPLC trace of a blood sample collected two minutes following injection of [^18F]PBR06. At this time point we noted the presence of both ^18F^− (retention time 2.8 min) and the parent ligand (10.1 min) in a respective ratio of ˜1:3.

TSPO [5] = target: TSPO (Rattus norvegicus, UniProt P16257); details: for K1/k2: 3-compartment, 4-parameter model; for K1/k2 / k3 / VT: mean ± S.E.; for K1/k2 / k3: N=3; for VT: N=4
Protocol: In this Example Glioma-bearing rats were imaged with [^18F]PBR06 in a microPET system. Dynamic acquisitions were acquired simultaneously upon injection of 70-100 MBq/0.2 mL [^18F]PBR06. Over the course of scanning, arterial blood was collected to derive the input function, with HPLC radiometabolite analysis performed on selected samples for arterial input function correction. Compartmental modeling of the PET data was performed using the corrected arterial input function. Specific tumor cell binding of PBR06 was evaluated by radioligand displacement of [^3H]PK 11195 with PBR06 in vitro and by displacement of [^18F]PBR06 with excess PBR06 in vivo. Immediately following imaging, tumor tissue and adjacent healthy brain were harvested for assay of TSPO protein levels by western blotting and immunohistochemistry.
PET/CT imaging was performed within 24 h of MR imaging in rats with confirmed tumors. Tumor-bearing rats were administered ˜70-100 MBq/0.2 mL [^18F]PBR06 via a jugular catheter while in a microPET Focus 220 (Siemens Preclinical Solutions, Knoxville, Tenn., USA). Dynamic images (90 min) were collected, followed by CT (microCAT II, Siemens Preclinical Solutions) for attenuation correction. For displacement studies, cold PBR06 (10 mg/kg) was injected via jugular catheter 30 min after radiotracer administration.
The dynamic PET acquisition was divided into twelve, five-second frames for the first minute, followed by 89 sixty-second frames for the duration of the scan. Data from all possible lines of response (LOR) were saved in the list mode raw data format. The raw data was then binned into 3D sinograms with a span of 3 and ring difference of 47. The images were reconstructed into transaxial slices (128×128×95) with voxel sizes of 0.095×0.095×0.08 cm^3, after applying scatter and attenuation corrections, using an iterative ordered subsets expectation maximization (OS-EM 2D) algorithm with 16 subsets and 4 iterations. Attenuation correction was accomplished by generating an attenuation map (sinogram) from the CT image. The CT image was first co-registered with the microPET image, segmented into air, soft tissue, and bone, and then projected into sinograms with a span of 47 and ring difference of 23.
Immediately following administration of [^18F]PBR06, arterial blood samples (50 μL) were collected at 10 s intervals during the first minute of scanning, followed by collection at 90 s and 2, 8, 12, 20, 30, 45, 60, 75, and 90 min. Plasma radioactivity was measured by first centrifuging blood samples (50 μL) at 14,000 rpm for 5 min in a microcentrifuge. Next, plasma (15 μL) was removed and measured in a NaI well counter (Capintec, Ramsey, N.J., USA).
Time-activity curves (TACs) were generated by manually segmenting three-dimensional volumes of interest over tumor and contralateral brain using ASIPro (Siemens Preclinical Solutions), avoiding areas of central necrosis if present. The arterial input function (AIF) was computed from plasma sampling during imaging and corrected for metabolism of the parent ligand. A 3-compartment, 4-rate constant kinetic model was used to characterize [^18F]PBR06 pharmacokinetics as previously described. Using the COMKAT software package, model parameters were estimated for constants for influx (K1) and efflux (k2) rates of radioligand diffusion between plasma and tissue compartments, and exchange between specific (k3) and non-specific binding (k4) compartments. Modeling was carried out for whole brain (excluding tumor) and tumor, individually, by fitting TACs of each region.
To evaluate the in vivo TSPO specificity of [^18F]PBR06, we carried out displacement studies in C6-bearing rats using the cold analog, PBR06.

[6] = at 45 minutes, after infusion of PBR06 at 30 minutes

T1 sequence (P30536 whole entry): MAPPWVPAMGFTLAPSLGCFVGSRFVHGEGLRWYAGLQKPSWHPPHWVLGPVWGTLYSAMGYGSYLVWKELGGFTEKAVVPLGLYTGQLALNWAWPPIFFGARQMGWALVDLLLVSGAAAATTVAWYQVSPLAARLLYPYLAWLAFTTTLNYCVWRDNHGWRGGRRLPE

In the case of `CCC(C)N(C)C(=O)c1cc2ccccc2c(-c2ccccc2Cl)n1` (stereo not shown) [PK 11195], the “in vitro affinity (in words)” value (TSPO [1]) is listed as “in vitro affinity in the low nanomolar range”.
In the case of `CN1C(=O)CN=C(c2ccc(Cl)cc2)c2cc(Cl)ccc21` [Ro5-4864], the “in vitro affinity (in words)” value (TSPO [1]) is listed as “in vitro affinity in the low nanomolar range”.
In the case of `CC[C@@H](C)N([11CH3])C(=O)c1cc2ccccc2c(-c2ccccc2Cl)n1` [[^11C]PK 11195], the “displaceable fraction of tracer with nonradioactive ligand” value (TSPO [2]; glioma patient (Pappata et al.)) is given as “less than 30%”, the “patients with significantly elevated uptake in gliomas vs contralateral normal brain” value (TSPO [2]; human gliomas (Junck et al.)) is given as 8/10 and the tumor/gray matter ratio (TSPO [2]; human gliomas, in 3/10 patients (Junck et al.)) is given as about 2.
In the case of `[11CH3]N1C(=O)CN=C(c2ccc(Cl)cc2)c2cc(Cl)ccc21` [[^11C]Ro5-4864], the “radioactivity in tumor tissue vs normal brain (in words)” value (TSPO [2]; human gliomas, PET (Junck et al.)) is given as “failed to demonstrate higher levels of radioactivity in tumor tissue than in normal brain”.
For `CCN(CC)C(=O)Cc1c(-c2ccc(OCC[18F])cc2)nn2c(C)cc(C)nc12` [[^18F]DPA-714], the “% 18F- in plasma” value ([3]; P.I. time 2 (N=7)) was 2 ± 3.3%, the “% Metabolite (hydrophilic radiometabolite) in plasma” value (from here on “% Metabolite”) ([3]; P.I. time 2 (N=7)) was 3 ± 3.7% and the “% 18F- in plasma” value ([3]; P.I. time 12 (N=7)) was 13 ± 6.7%. The “% Metabolite” value ([3]; P.I. time 12 (N=7)) was 19 ± 5.8%, the “% [18F]DPA-714 (parent) in plasma” value ([3]; P.I. time 12 (N=7)) was 68 ± 7.4% and the “% 18F- in plasma” value ([3]; P.I. time 30 (N=7)) was 37 ± 5.4%. For the same molecule, the “% Metabolite” value ([3]; P.I. time 30 (N=7)) was 19 ± 8.8%, the “% [18F]DPA-714 (parent) in plasma” value ([3]; P.I. time 30 (N=7)) was 44 ± 8.9% and the “% 18F- in plasma” value ([3]; P.I. time 60 (N=7)) was 50 ± 15.0%. The “% Metabolite” value ([3]; P.I. time 60 (N=7)) was 23 ± 7.3%, the “% [18F]DPA-714 (parent) in plasma” value ([3]; P.I. time 60 (N=7)) was 27 ± 6.2% and the “% 18F- in plasma” value ([3]; P.I. time 90 (N=5)) was 64 ± 12.1%. The “% Metabolite” value ([3]; P.I. time 90 (N=5)) was 14 ± 3.8% and the “% [18F]DPA-714 (parent) in plasma” value ([3]; P.I. time 90 (N=5)) was 22 ± 17.8%.
For `COc1ccc(OC)c(CN(C(=O)C[18F])c2ccccc2Oc2ccccc2)c1` [[^18F]PBR06], the “free 18F− in plasma” value ([4]; at 2 minutes after injection) was 25%, the “parent ligand [18F]PBR06 in plasma” value ([4]; at 2 minutes after injection) was 75% and the “free 18F− in plasma” value ([4]; at 30 minutes) was 62%. For the same molecule, the “parent ligand [18F]PBR06 in plasma” value ([4]; at 30 minutes) was 38%, the “18F− in plasma” value [4, 6] was 43% and the “fraction of [18F]PBR06 in plasma” value [4, 6] was 57%. The “tracer distribution tumor vs contralateral brain (in words)” value (TSPO [5]; C6 glioma-bearing rats) was “preferentially accumulate in tumors with modest uptake in contralateral brain”, the “tumor activity after PBR06 infusion, % of maximum/peak tumor uptake” value (TSPO [5]; PBR06 10 mg/kg i.v. 30 min after tracer) was “approximately 25%” and the K1/k2 (TSPO [5]; brain) was 6.164 ± 2.049 mL/g. For the same molecule, the k3 (TSPO [5]; brain) was 0.0714 ± 0.0261 min⁻¹, the VT (TSPO [5]; brain) was 13.07 ± 3.901 mL/g and the k4 (TSPO [5]; brain, mean, N=3 (S.E. in next line)) was 0.00945 min⁻¹. The “displaceable [18F]PBR06 binding” value (TSPO [5]; infusion of PBR06 10 mg/kg 30 min after tracer, tumor) was “approximately 75%”, the “total radioactivity in tumor relative to normal brain” value (TSPO [5]; last 20 minutes of the PET scan) was “approximately three- to four-fold higher than normal brain” and the K1/k2 (TSPO [5]; tumor) was 5.947 ± 1.982 mL/g. For the same molecule, the k3 (TSPO [5]; tumor) was 0.3870 ± 0.1592 min⁻¹ and the VT (TSPO [5]; tumor) was 63.90 ± 3.400 mL/g.
